Data published in ChEMBL document CHEMBL5532721, “Novel KRAS Inhibitors for Treating Non-Small-Cell Lung Cancer” (ACS Med Chem Lett, 2024).

Columns and labels:
[1] = Inhibition of recombinant GMPPNP-loaded KRAS G12D mutant/recombinant GST-tagged RAF1 RBD (unknown origin) interaction preincubated for 20 mins followed by RAF1 RBD addition and measured after 3 hrs by HTRF assay; parameters: species or system Homo sapiens
[2] = Inhibition of recombinant GDP-loaded KRAS G12D mutant/recombinant SOS (unknown origin) interaction preincubated for 20 mins followed by SOS addition and measured after 30 mins by HTRF assay; parameters: species or system Homo sapiens

SMILES | IC50 [1] | IC50 [2]
C#Cc1c(F)ccc2cc(O)cc(-c3ncc4c(N5CCCC(C#N)C5)nc(OC[C@@]56CCCN5C[C@H](F)C6)nc4c3F)c12 (some centres not stated) | 2 nM | 2 nM
C#Cc1c(F)ccc2cc(O)cc(-c3ncc4c(N5CCOCC(CC#N)C5)nc(OC[C@]56CCC[C@H]5N(C)CCC6)nc4c3F)c12 (some centres not stated) | 2 nM | 2 nM
C#Cc1c(F)ccc2cc(O)cc(-c3ncc4c(N5CCCOCC5)nc(OC[C@]56CCC[C@H]5N(CC)CCC6)nc4c3F)c12 | 6 nM | 2 nM
C#Cc1c(F)ccc2cc(O)cc(-c3ncc4c(N5CCCC(O)(C(F)(F)F)C5)nc(OC[C@]56CCC[C@H]5N(C)CCC6)nc4c3F)c12 (some centres not stated) | 3 nM | 2 nM
C#Cc1c(F)ccc2cc(O)cc(-c3ncc4c(N5CCOCC(CO)C5)nc(OC[C@]56CCC[C@H]5N(C)CCC6)nc4c3F)c12 (some centres not stated) | 3 nM | 5 nM
C#Cc1c(F)ccc2cc(O)cc(-c3ccc4c(N5C[C@@H]6C[C@H]5C(=O)N6)nc(OC[C@]56CCC[C@H]5N(C)CCC6)nc4c3F)c12 | 3 nM | 6 nM
